The target in series [1] is recombinant RORγ Ligand Binding Domain (LBD) protein (Homo sapiens (Human), UniProt P51449). The series is described as follows: Radio-Ligand RORγ Binding Assay (Assay 1). The note with it: competition with 25-hydroxy [26,27-3H]-cholesterol, SPA; read-out: RORγ Binding Ki Range (nM) (Assay 1). The method, then:
Radio-Ligand RORγ Binding Assay (Assay 1)
Compounds of the present invention were tested for ability to bind to RORγ in a cell-free competition assay with commercially available radio-ligand (RL), 25-hydroxy [26,27-^3H]-cholesterol (PerkinElmer, Cat. # NET674250UC), for a ligand binding site on a recombinant RORγ Ligand Binding Domain (LBD) protein expressed as a 6×His-Glutathione-S-Transferase (GST) fusion. […] The plate was shaken at 700 rpm for 20 min and incubated for 10 min at rt, after which 40 μL of poly-Lys YSi SPA beads (PerkinElmer, Cat. # RPNQ0010) were added to achieve 50 μg of the beads per well. The plate was incubated on an orbital shaker for 20 min and then for 10 min without agitation at rt. SPA signal for tritium beta radiation was registered on PerkinElmer Microbeta plate reader. […] The percent inhibition vs. concentration data were fit into a four-parameter model, and IC50 values were calculated from the fit as the concentrations corresponding to the inflection points on the dose-response curves.

Series [2] addresses full-length RORγt in Jurkat cells (Homo sapiens (Human), UniProt P51449). The experiment in a line: RORγt 5×RORE Assay in Jurkat Cells (Assay 2). As to conditions: 5×RORE Nanoluc luciferase reporter, read-out: RORγt5X IC50 Range (nM) (Assay 2). It counts as cell-based. The method, then:
[formula] RORγt 5×RORE Assay in Jurkat Cells (Assay 2)
Compounds of the present invention were tested for RORγ inverse agonist activity in a cell-based, transcriptional activity assay. […] (Promega, Cat. # N1021) using KpnI and HindIII restriction sites. […] Tested compounds were added to the cells in the same media (final concentration of DMSO was 0.1% (v/v)), and the plates were incubated at 37° C./5% CO2 for 16-18 hr. Luciferase activity in the conditioned supernatants was determined with NanoGlo® assay reagents (Promega, Cat.# N1130).

In series [3] the target is hERG potassium ion channel (Homo sapiens (Human), UniProt Q12809). The experiment in a line: hERG Assay (Assay 4). It counts as cell-based. As to conditions: HEK293 cells stably transfected with hERG cDNA, pH 7.4, compound at 3 μM, patch clamp, HEK 293 cells transfected with hERG. The method, then: Compounds of the invention were tested in vitro against the hERG (human ether-à-go-go-related gene) potassium ion channel (a surrogate for IKr, the rapidly activating delayed rectifier cardiac potassium ion channel).
hERG potassium ion channel, sequence (Q12809 whole entry): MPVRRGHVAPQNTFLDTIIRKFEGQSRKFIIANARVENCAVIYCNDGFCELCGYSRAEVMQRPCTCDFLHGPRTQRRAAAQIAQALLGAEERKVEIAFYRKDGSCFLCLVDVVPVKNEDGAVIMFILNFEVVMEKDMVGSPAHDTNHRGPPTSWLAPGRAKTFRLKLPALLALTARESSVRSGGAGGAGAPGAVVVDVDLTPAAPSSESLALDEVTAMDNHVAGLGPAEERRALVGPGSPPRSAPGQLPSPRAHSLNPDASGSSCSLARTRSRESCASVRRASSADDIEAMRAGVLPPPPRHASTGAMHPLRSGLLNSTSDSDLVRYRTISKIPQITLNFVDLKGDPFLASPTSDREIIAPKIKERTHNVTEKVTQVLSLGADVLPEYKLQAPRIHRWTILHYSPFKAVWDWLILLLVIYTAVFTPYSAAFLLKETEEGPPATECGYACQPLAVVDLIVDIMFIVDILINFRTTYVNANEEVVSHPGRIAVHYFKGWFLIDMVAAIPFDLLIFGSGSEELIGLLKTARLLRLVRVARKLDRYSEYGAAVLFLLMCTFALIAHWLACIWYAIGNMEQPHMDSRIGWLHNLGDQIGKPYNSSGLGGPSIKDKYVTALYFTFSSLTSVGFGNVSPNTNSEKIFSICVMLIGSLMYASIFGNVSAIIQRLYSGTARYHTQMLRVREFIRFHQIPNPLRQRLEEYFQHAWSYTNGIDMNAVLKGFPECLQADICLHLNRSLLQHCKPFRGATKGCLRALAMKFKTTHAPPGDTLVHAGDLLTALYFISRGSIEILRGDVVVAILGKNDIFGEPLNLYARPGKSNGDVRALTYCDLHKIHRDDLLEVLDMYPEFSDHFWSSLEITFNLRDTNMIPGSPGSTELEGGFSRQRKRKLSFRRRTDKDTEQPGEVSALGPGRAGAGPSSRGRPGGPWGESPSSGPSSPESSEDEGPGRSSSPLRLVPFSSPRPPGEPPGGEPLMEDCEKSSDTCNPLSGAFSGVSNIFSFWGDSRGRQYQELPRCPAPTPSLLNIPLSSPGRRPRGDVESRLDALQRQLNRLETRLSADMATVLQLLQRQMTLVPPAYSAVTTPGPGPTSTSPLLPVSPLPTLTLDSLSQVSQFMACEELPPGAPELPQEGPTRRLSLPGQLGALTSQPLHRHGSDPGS
The buffer was HEPES-buffered physiological saline (HB-PS) solution composed of: 137 mM NaCl, 4.0 mM KCl, 1.8 mM CaCl2, 1 mM MgCl2, 10 mM HEPES, 10 mM glucose, pH adjusted to 7.4 with NaOH, and 0.3% DMSO. Chemicals used in solution preparation were purchased from Sigma-Aldrich (St. Louis, Mo.), unless otherwise noted, and were of ACS reagent grade purity or higher.
HEK (human embryonic kidney) 293 cells were stably transfected with hERG cDNA.
For the patch clamp experiment, onset and steady state inhibition of hERG potassium current was measured using a pulse pattern with fixed amplitudes (depolarization: +20 mV for 2 s; repolarization: −50 mV for 2 s) repeated at 10 s intervals from a holding potential of −80 mV. Peak tail current was measured during the 2 s step to −50 mV. A steady state was maintained for at least 30 seconds before applying compound or positive control (cisapride). Peak tail currents were measured until a new steady state was achieved.
Data acquisition and analyses were performed using the suite of pCLAMP® (ver. 8.2) programs (MDS Analytical Technologies, Sunnyvale, Calif.). Steady state was defined by the limiting constant rate of change with time (linear time dependence). The steady state before and after each compound application was used to calculate the percentage of current inhibited at each concentration.
Concentration-response data were fit to an equation of the following form: % Inhibition={1−1/[1+([Test]/IC50)N]}*100
where [Test] was the compound concentration, IC50 was the compound concentration at half-maximal inhibition, N was the Hill coefficient, and % Inhibition was the percentage of current inhibited at each compound concentration. Nonlinear least squares fits were solved with the Solver add-in for Excel 2003 (Microsoft, WA) and the IC50 was calculated.

Series [4] has as its system IL-17A production in human whole blood. The experiment in a line: Human Whole Blood Assay (Assay 3). It counts as cell-based. As to conditions: IL-17A secretion, CytoStim activation, 48 h, 50% blood/media. How it is done: Human Whole Blood Assay (Assay 3)
Compounds of the invention were tested in the human whole blood assay to measure their effects on IL-17A production as determined by cytokine secretion into 50% blood/media supernatant. Mixtures of sodium heparinized whole blood (isolated from healthy human donors) and the T cell activator CytoStim, in the presence or absence of compound, were plated in sterilized, tissue culture-treated 24-well plates. […]
Mixtures were incubated at 37° C./5% CO2 for 48 h, after which, 200 μL of clean supernatant (i.e., no red blood cells) from each well was transferred to a well in a 96-well plate. IL-17A cytokine expression was determined using 25 μL of the transferred supernatant diluted with 25 μL of Diluent 43 from the Human IL-17A V-PLEX™ kit (cat. # K151RFD-4, Meso Scale Discovery, Rockville, Md.). […] The IL-17A V-PLEX™ plates were read using the Meso Scale Discovery Imager (Model 1200). The levels of IL-17A were extrapolated from a standard curve using a four-parameter non-linear fitting model and expressed as pg/mL. […]

Our source for the Ki, IC50 and inhibition values is patent publication US9663515B2, “Dihydropyrrolopyridine inhibitors of ROR-gamma” (Vitae Pharmaceuticals, Inc., priority 2014, dated 2017).

Each structure is given as a SMILES string.

full-length RORγt in Jurkat cells, sequence (P51449 other isoform, or with tags, fused parts or gaps): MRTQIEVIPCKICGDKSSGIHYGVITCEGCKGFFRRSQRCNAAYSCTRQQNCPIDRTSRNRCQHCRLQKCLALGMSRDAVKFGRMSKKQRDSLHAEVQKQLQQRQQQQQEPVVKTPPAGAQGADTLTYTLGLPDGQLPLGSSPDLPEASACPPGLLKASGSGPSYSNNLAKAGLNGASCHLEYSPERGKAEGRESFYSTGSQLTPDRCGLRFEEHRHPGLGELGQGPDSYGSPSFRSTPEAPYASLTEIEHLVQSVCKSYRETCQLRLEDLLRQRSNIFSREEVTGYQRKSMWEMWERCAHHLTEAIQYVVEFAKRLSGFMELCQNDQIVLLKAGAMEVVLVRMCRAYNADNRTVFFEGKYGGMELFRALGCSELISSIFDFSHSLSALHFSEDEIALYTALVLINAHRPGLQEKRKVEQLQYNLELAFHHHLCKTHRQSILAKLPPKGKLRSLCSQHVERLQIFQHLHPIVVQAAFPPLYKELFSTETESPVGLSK
recombinant RORγ Ligand Binding Domain (LBD) protein, sequence (P51449 269-508): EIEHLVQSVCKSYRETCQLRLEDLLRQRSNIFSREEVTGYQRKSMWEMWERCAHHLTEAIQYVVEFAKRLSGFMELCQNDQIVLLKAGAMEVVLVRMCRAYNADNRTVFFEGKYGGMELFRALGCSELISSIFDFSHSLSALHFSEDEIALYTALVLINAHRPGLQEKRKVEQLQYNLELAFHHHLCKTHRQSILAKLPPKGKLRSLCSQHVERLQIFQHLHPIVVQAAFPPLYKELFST

As for `CCS(=O)(=O)c1ccc([C@@H](COC(N)=O)NC(=O)c2cnc3c(c2)CN(C[C@H]2CC[C@H](C(F)(F)F)CC2)[C@H]3C(C)C)cc1` [Compound 12], the Ki in series [1] is under 100 nM. In addition, the IC50 in series [2] was under 100 nM. The compound further displayed an inhibition at 3 µM in series [3] of 38.8%.

On to `CCS(=O)(=O)c1ccc([C@H](COCC(=O)O)NC(=O)c2cnc3c(c2)CN(C[C@H]2CC[C@H](C(F)(F)F)CC2)[C@H]3C(C)C)cc1` [Compound 14], for which the inhibitory constant (Ki) in series [1] is under 100 nM. Also, in series [2], the IC50 was 100 to 1000 nM.

With `CCS(=O)(=O)c1ccc([C@@H](COC(N)=O)NC(=O)c2cnc3c(c2)CN(C[C@H]2CC[C@@H](C(F)(F)F)CC2)[C@H]3C(C)C)nc1` [Compound 9], the Ki in series [1] is under 100 nM. Besides, the IC50 in series [2] was over 1000 nM.

Take `CCS(=O)(=O)c1ccc([C@H](COC(N)=O)NC(=O)c2cnc3c(c2)CN(C[C@H]2CC[C@@H](C(F)(F)F)CC2)[C@H]3C(C)C)cc1` [Compound 11]: in series [1], the Ki was under 100 nM. In series [2], the IC50 is over 1000 nM.

For the compound `CC[C@H]1c2ncc(C(=O)N[C@@H](COC(N)=O)c3ccc(S(=O)(=O)CC)cc3)cc2CN1C[C@H]1CC[C@H](C(F)(F)F)CC1` [Compound 2, (R)-2-((S)-7-ethyl-6-((trans-4-(trifluoromethyl)cyclohexyl)methyl)-6,7-dihydro-5H-pyrrolo[3,4-b]pyridine-3-carboxamido)-2-(4-(ethylsulfonyl)phenyl)ethyl carbamate], the Ki in series [1] is […]. In addition, the IC50 in series [2] is […]; in series [4], […]. Testing at 3 µM in series [3] gave an inhibition of 38.8%.

For the compound `CCS(=O)(=O)c1ccc([C@H](COC(N)=O)NC(=O)c2cnc3c(c2)CN(C[C@H]2CC[C@H](C(F)(F)F)CC2)[C@H]3C(C)C)nc1` [Compound 10], the Ki in series [1] is under 100 nM. Moreover, in series [2], the IC50 is under 100 nM.

On to `CC[C@H]1c2ncc(C(=O)N[C@@H](COC)c3ccc(S(=O)(=O)CC)cc3)cc2CN1C[C@H]1CC[C@H](C(F)(F)F)CC1` [Compound 1, (S)-7-ethyl-N—((R)-1-(4-(ethylsulfonyl)phenyl)-2-methoxyethyl)-6-((trans-4-(trifluoromethyl)cyclohexyl)methyl)-6,7-dihydro-5H-pyrrolo[3,4-b]pyridine-3-carboxamide], for which the Ki in series [1] is under 100 nM. Further, the IC50 in series [2] and in series [4] was under 100 nM throughout. This compound came in with an inhibition at 3 µM in series [3] of 24.3%.

With `CCS(=O)(=O)c1ccc(CNC(=O)c2cnc3c(c2)CN(C[C@H]2CC[C@H](C(F)(F)F)CC2)[C@H]3C(C)C)nc1`, the inhibition at 3 µM in series [3] is 45.4%.

`CCS(=O)(=O)c1ccc(CNC(=O)c2cnc3c(c2)CN(C[C@H]2CC[C@H](C(F)(F)F)CC2)[C@H]3C(C)C)cc1`: at 3 µM the inhibition in series [3] was 57%.

For the compound `CC[C@H]1c2ncc(C(=O)N[C@@H](COC)c3ccc(S(=O)(=O)CC)cc3)cc2CN1C[C@@H]1CC[C@H](C(F)(F)F)OC1` (single isomer, unassigned) [Compound 5], the Ki in series [1] is under 100 nM. Further, the IC50 in series [2] is over 1000 nM.

`CC[C@H]1c2ncc(C(=O)N[C@@H](COC)c3ccc(S(=O)(=O)CC)cc3)cc2CN1C[C@H]1CC[C@@H](C(F)(F)F)OC1` (single isomer, unassigned) [Compound 6]: the Ki in series [1] is under 100 nM. Also, in series [2], the IC50 was over 1000 nM.

`CCS(=O)(=O)c1ccc([C@H](COC)NC(=O)c2cnc3c(c2)CN(C[C@H]2CC[C@H](C(F)(F)F)CC2)[C@H]3C(C)C)cc1` [Compound 15]: in series [1], the Ki was under 100 nM. Also, in series [2], the IC50 is under 100 nM. The compound further had an inhibition at 3 µM in series [3] of 50%.

Consider `CCS(=O)(=O)c1ccc([C@H](COC)NC(=O)c2cnc3c(c2)CN(C[C@H]2CC[C@@H](C(F)(F)F)CC2)[C@H]3C(C)C)cc1` [Compound 8], for which, in series [1], the Ki is under 100 nM. Further, the IC50 in series [2] was over 1000 nM.

`CC[C@@H]1c2ncc(C(=O)N[C@@H](COC(N)=O)c3ccc(S(=O)(=O)CC)cc3)cc2CN1C[C@H]1CC[C@H](C(F)(F)F)CC1` [Compound 13]: the Ki in series [1] was […].

With `CC[C@H]1c2ncc(C(=O)N[C@@H](COC)c3ccc(S(=O)(=O)CC)cc3)cc2CN1C[C@H]1CC[C@H](C(F)(F)F)OC1` (single isomer, unassigned) [Compound 3], the Ki in series [1] is under 100 nM. Further, the IC50 in series [2] was under 100 nM. In addition, the inhibition at 3 µM in series [3] came to 24.3%.

As to `CC[C@H]1c2ncc(C(=O)N[C@@H](COC)c3ccc(S(=O)(=O)CC)cc3)cc2CN1C[C@@H]1CC[C@@H](C(F)(F)F)OC1` (single isomer, unassigned) [Compound 4], the Ki in series [1] is under 100 nM. The IC50 in series [2] was under 100 nM.
